Source: patent EP0318859A2, “N-substituted mercaptopropanamide derivatives” (Dainippon Pharmaceutical Co., Ltd., priority 1987, dated 1989)

What was measured:
Female Std:ddy mice = experiment: Analgesic activity (mouse phenylquinone writhing test); assay type: in vivo; settings: po, 30 minutes before i.p. phenylquinone, reduction in writhes greater than 50 % of vehicle control = effective, Litchfield and Wilcoxon, read-out: ED₅₀
Procedure: (1) Analgesic activity (mouse phenylquinone writhing test)
Female Std:ddy mice (weighing 18 - 22 g) were used. Each animal was given intraperitoneally 10 ml/kg of 0.03 % phenylquinone in 5 % aqueous ethanol, and the number of writhes was counted for 15 minutes, beginning 5 minutes after the injection of phenylquinone. Test compounds, suspended or dissolved in 0.5 % gum tragacanth aqueous solution, were given orally 30 minutes before the injection of phenylquinone. A reduction in writhes counts greater than 50 % of the vehicle control value was considered to be effective. The ED₅₀-value was calculated from the effective rate according to the method of Litchfield and Wilcoxon.

enkephalinase [1] = target: T1, enkephalinase (Rattus norvegicus, UniProt P07861); experiment: Enkephalinase inhibitory activity in vitro ([³H]-leucine-enkephalin degradation); assay type: biochemical, rats; settings: rat striatum enkephalinase; substrate [³H]-leucine-enkephalin 20 nM; 1 hour at 37°C; read-out: IC₅₀
T1 construct: Male Std:Wistar rats were decapitated and the striata were removed; from tissue; host or cells: rat striatum (membrane pellet, solubilised with 1 % Triton X-100, DEAE-cellulose fraction)
T1 sequence (P07861 1-750): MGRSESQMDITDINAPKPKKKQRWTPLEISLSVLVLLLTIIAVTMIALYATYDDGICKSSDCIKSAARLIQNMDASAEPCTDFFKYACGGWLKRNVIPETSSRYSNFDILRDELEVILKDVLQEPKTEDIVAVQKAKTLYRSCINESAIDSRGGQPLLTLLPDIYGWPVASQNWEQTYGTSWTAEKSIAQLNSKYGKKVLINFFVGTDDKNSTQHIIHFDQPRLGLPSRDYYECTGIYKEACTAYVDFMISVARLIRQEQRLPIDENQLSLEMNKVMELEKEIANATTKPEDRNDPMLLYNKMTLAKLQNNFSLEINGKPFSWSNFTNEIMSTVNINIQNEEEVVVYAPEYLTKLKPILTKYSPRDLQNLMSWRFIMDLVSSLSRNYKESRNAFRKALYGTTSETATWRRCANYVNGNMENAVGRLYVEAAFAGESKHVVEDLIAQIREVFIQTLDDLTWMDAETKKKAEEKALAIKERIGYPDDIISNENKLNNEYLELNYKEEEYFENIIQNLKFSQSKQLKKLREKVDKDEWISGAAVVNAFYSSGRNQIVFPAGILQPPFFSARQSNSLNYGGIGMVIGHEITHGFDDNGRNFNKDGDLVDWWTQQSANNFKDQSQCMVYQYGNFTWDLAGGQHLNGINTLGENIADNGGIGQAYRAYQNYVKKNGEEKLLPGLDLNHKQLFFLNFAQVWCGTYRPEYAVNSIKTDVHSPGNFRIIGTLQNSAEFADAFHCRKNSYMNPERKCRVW
Procedure: (3) Enkephalinase inhibitory activity in vitro
Enkephalin degrading enzymes were separated according to the method described by Gorenstein and Snyder (Life Science, 25, 2065 (1979)).
Male Std:Wistar rats were decapitated and the striata were removed. These were homogenized in 30 volumes of 50 mM Tris-HCl buffer (pH 7.4) and centrifuged for 15 minutes at 1,000 x g. The supernatant was centrifuged for 15 minutes at 50,000 x g. The pellet was washed three times with the same buffer and then suspended in 15 volumes of 50 mM Tris-HCl buffer (pH 7.4) containing 1 % Triton X-100, followed by incubation for 45 minutes at 37°C. After centrifugation for 1 hour at 100,000 x g, the supernatant was applied onto DEAE-cellulose ion exchange chromatography column. The fraction containing enkephalin dipeptidylcarboxypeptidase was used as enkephalinase sample.
(ii) Measurement of inhibitory activity
After preincubation of test compound and enkephalinase for 5 minutes at 37°C, [³H]-leucine-enkephalin (substrate) was added to the reaction mixture and then the mixture was incubated for 1 hour at 37°C (final volume: 100 µl, final concentration of substarate: 20 nM). Ice-cold 0.2N HCl was added to the mixture to stop the reaction. Substrate and metabolites were separated with TLC and Porapak Q® column by the method of Vogel and Alstein [FEBS Letters, 80, 332 (1977)]. Enzyme activity was estimated from the production rate of [³H]-Tyr-Gly-Gly. The IC₅₀-value of test compounds was calculated from the inhibitory rates, estimated from the difference between the enzyme activities in the absence and the presence of test compound.

enkephalinase [2] = experiment: Enkephalinase inhibitory activity in vivo (potentiation of the analgesic activity of DAME, tail pressure pain); settings: p.o., 30 minutes before intracisternal DAME; pressure pain threshold measured 5 minutes after DAME; male Std:ddy mice
Procedure: (2) Enkephalinase inhibitory activity in vivo
(Potentiation of the analgesic activity of DAME)
Pressure pain was induced by pressing the tail of male Std:ddy mice (weighing 20 - 26 g) using an apparatus for pressure measurement. The pressure pain threshold (biting response) was measured as mm. Test compound, dissolved or suspended in 0.5 % gum tragacanth aqueous solution, was given orally 30 minutes before intracisternaly administration of D-Ala²-Met⁵-enkephalin (DAME). Five minutes after administration of DAME, the pressure pain threshold was measured, and the potentiation activity of test compounds on the analgesic effect of DAME was tested.

IC50 (enkephalinase [1]) [nM]	Compound	ED50 (Female Std:ddy mice) [mg/kg]	ED₅₀ (enkephalinase [2]) [mg/kg]
–	CC(=O)SCC(Cc1ccccc1)C(=O)Nc1cc(C)cc(C(=O)O)c1 (stereo not shown) [Example 1, 3-[(2-acetylthiomethyl-3-phenylpropionyl)amino]-5-methylbenzoic acid]	22.3	–
5.4	Cc1cc(NC(=O)C(CS)Cc2ccccc2)cc(C(=O)O)c1 (stereo not shown) [Example 2, 3-[(2-mercaptomethyl-3-phenylpropionyl)amino]-5-methylbenzoic acid]	16.6	20.2
–	CC(=O)SCC(Cc1ccccc1)C(=O)Nc1cccc(C(=O)O)c1C (stereo not shown) [Example 3, 3-[(2-acetylthiomethyl-3-phenylpropionyl)amino]-2-methylbenzoic acid]	21.6	–
7.5	Cc1c(NC(=O)C(CS)Cc2ccccc2)cccc1C(=O)O (stereo not shown) [Example 7, 3-[(2-mercaptomethyl-3-phenylpropionyl)amino]-2-methylbenzoic acid]	17.9	38.3
–	CCc1cc(NC(=O)C(CSC(C)=O)Cc2ccccc2)cc(C(=O)O)c1 (stereo not shown) [Example 64, 3-[(2-acetylthiomethyl-3-phenylpropionyl)amino]-5-ethylbenzoic acid]	11	20.8
4.6	CCc1cc(NC(=O)C(CS)Cc2ccccc2)cc(C(=O)O)c1 (stereo not shown) [Example 65, 3-[(2-mercaptomethyl-3-phenylpropionyl)amino]-5-ethylbenzoic acid]	22.9	–
–	CC(=O)SCC(CC(C)C)C(=O)Nc1cccc(C(=O)O)c1C (stereo not shown) [Example 175, 3-[(2-acetylthiomethyl-4-methylpentanoyl)amino]-2-methylbenzoic acid]	21.1	–
–	CC(=O)SCC(CC(C)C)C(=O)Nc1cc(C)cc(C(=O)O)c1 (stereo not shown) [Example 176, 3-[(2-acetylthiomethyl-4-methylpentanoyl)amino]-5-methylbenzoic acid]	22.9	–
8.4	CC(C)CC(CS)C(=O)Nc1cccc(C(=O)O)c1 (stereo not shown) [Example 186, 3-[(2-mercaptomethyl-4-methylpentanoyl)amino]benzoic acid]	15	–
7.8	Cc1c(NC(=O)C(CS)CC(C)C)cccc1C(=O)O (stereo not shown) [Example 187, 3-[(2-mercaptomethyl-4-methylpentanoyl)amino]-2-methylbenzoic acid]	20.1	–
–	O=C(O)CNC(=O)C(CS)Cc1ccccc1 (stereo not shown) [Thiorphan, [(D,L)-2-mercaptomethyl-3-phenylpropionyl]glycine, reference compound]	137	–
